Literature values as cited in US10174015B2, “Substituted heterocyclic derivative, preparation method and use thereof” (Xiamen University, priority 2014, dated 2019).

Assays:
[1] = tested on: leukocyte migration and inflammatory exudation; details: topical administration; cited from earlier work
NAAA = NAAA inhibitor, literature value; cited from earlier work

For O=C(CCc1ccccc1)N[C@H]1COC1=O [S-OOPP], the “effect on leukocyte migration and inflammatory exudation” value [1] is given as “inhibiting leukocyte migration and inflammatory exudation” and the IC50 (NAAA) is given as 0.42 µM.
